Measurements reported in patent US5310665A (Gist-brocades, N.V., priority 1990, dated 1994).

Tests used:
[1] = target: T1, Actinoplanes missouriensis glucose isomerase variant H290N (Actinoplanes missouriensis, UniProt P12851, H290N); test: Steady-state kinetics of glucose isomerase mutant; type: biochemical; details: 60° C., 10 mM Mg2+, pH 7.5
T1 construct: made in house; host or cells: E. coli K514
Experimental: (§1) Alternatively, the D-fructose produced during the isomerization reaction can be determined enzymatically using sorbitol dehydrogenase and NADH.
(§2) As a measure of specificity the quotient is Vmax /Km is sometimes used (Wells et al., ibid). […] These temperatures are chosen for practical reasons.
(§3) Activities were measured on purified enzyme. The coupled sorbitol dehydrogenase assay was used for xylose, the cysteine-carbazole or discontinuous sorbitol dehydrogenase method was used for glucose.

[2] = target: T2, Actinoplanes missouriensis glucose isomerase variant M88SH290N (M88S/H290N) (Actinoplanes missouriensis, UniProt P12851, H290N/M88S); test: Steady-state kinetics of glucose isomerase mutant; type: biochemical; details: 60° C., 10 mM Mg2+, pH 7.5
T2 construct: made in house; host or cells: E. coli K514
Experimental: as §1, §2, §3

[3] = target: T3, Actinoplanes missouriensis glucose isomerase, wild type, SEQ ID NO: 1 (Actinoplanes missouriensis, UniProt P12851); test: Steady-state kinetics of glucose isomerase (coupled sorbitol dehydrogenase assay for xylose; cysteine-carbazole or sorbitol dehydrogenase method for glucose); type: biochemical; details: 60° C., 10 mM Mg2+, pH 7.5
T3 construct: made in house; host or cells: E. coli K514

[4] = tested on: naturally occurring glucose isomerases (various microorganisms); details: range over microorganisms; cited from earlier work

T2 sequence (P12851 2-394 M88S/H290N limits assumed): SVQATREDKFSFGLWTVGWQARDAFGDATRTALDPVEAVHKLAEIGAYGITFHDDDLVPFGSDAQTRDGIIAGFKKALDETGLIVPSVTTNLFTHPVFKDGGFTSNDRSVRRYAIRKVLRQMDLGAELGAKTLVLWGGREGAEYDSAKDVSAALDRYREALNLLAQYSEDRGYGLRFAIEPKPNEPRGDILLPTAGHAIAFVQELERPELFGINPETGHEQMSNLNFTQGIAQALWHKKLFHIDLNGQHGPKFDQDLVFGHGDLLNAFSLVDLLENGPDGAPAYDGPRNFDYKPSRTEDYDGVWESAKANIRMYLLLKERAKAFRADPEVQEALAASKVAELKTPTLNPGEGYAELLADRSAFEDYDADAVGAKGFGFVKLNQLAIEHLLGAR
T3 sequence (P12851 2-394 limits assumed): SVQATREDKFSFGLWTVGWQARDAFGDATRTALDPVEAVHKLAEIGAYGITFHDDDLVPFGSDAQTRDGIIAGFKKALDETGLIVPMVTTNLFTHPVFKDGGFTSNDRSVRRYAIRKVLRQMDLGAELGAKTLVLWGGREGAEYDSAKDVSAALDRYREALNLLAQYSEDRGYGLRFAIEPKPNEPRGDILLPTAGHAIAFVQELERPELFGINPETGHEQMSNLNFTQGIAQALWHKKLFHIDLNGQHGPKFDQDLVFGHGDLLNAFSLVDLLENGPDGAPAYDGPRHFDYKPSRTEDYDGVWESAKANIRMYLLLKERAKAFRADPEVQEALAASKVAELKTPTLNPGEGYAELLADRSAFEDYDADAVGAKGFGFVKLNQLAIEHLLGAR
T1 sequence (P12851 2-394 H290N limits assumed): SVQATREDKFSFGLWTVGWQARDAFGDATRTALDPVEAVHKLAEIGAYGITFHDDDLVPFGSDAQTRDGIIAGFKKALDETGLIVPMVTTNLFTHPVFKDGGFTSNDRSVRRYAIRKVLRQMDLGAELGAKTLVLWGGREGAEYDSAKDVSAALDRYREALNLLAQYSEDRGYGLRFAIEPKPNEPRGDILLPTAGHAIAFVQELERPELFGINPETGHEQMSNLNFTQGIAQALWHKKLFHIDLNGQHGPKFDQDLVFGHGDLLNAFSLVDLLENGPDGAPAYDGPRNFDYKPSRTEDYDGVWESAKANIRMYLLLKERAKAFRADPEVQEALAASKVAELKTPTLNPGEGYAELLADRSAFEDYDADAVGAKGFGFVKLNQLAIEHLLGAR

| Compound | Vmax gl [1] | Vmax gl [2] | Vmax gl [3] | Km [4] |
| --- | --- | --- | --- | --- |
| O=C[C@H](O)[C@@H](O)[C@H](O)[C@H](O)CO [glucose] | 41.800 µmol/min/mg | 49.770 µmol/min/mg | 34.800 µmol/min/mg | – |
| O=C[C@H](O)[C@@H](O)[C@H](O)CO [xylose] | – | – | – | 5 to 93 mM |
